Drawing on BindingDB's records for patent US20240109917 (Actelion Pharmaceuticals, 2024), this text covers IC50 for one compound.

The target in assay [1] is Platelet-derived growth factor receptor beta (Homo sapiens, UniProt P09619). The assay is described as follows: PDGFRβ HTRF Assay.
Method: Stock Solutions:Assay buffer stock solution, contains 50 mM Hepes, 10 mM MgCl2, 1 mM EGTA, and 0.01% Brij-35, 0.01% ovalbumin, 2 mM DTT at pH 7.5, in molecular biology grade water. […] Store at −80° C. in aliquots.TK-biotin peptide, 0.5 μM in molecular biology grade water, store at −20° C. in aliquots.ATP, 100 mM in molecular biology grade water, store at −20° C. in aliquots.HTRF KinEASE-TK kit: Allow the contents of the Cisbio kit to warm up to room temperature before use. This kit contains HTRF detection buffer, TK-Antibody labeled with Eu3+-cryptate, TK-substrate biotin and Streptavidin-XL665.TK Substrate-Biotin, reconstitute 500 μg lyopholized with 574 μL molecular biology grade water to prepare a 500 μM stock; After use, aliquot the rest and store at −20° C.TK Antibody-Cryptate, reconstitute lyophilized with 1 mL of molecular biology grade water (100× solution) then add 99 mL detection buffer to prepare a ready to use TK-antibody-cryptate solution; the concentration of the TK-antibody-cryptate reagent is not known.
Assay [2] addresses Vascular endothelial growth factor receptor 2 (Homo sapiens, UniProt P35968). The assay is described as follows: VEGFR ADP GLO Assay. As to the method:
Assay Procedure:Step 1. Dispensing inhibitors/controls: Using Echo, dispense 10 nL/well compound serial dilutions in DMSO to columns 1-22 (in 384-well plates) or columns 1-44 (in 1536-well plates). Dilution series=11 pt, 3-fold dilutions. The top compound concentration in the source plate is 4 mM. The top compound concentration in the assay plate is 10 uM. Using Echo, dispense 10 nl/well DMSO to column 23 (in 384-well plates) or columns 45-47 (in 1536-well plates). These wells will serve as negative control wells Using Echo, dispense 10 nl/well 400 uM TAK-593 in DMSO to column 24 (in 384-well plates) or column 48 (in 1536-well plates). The final concentration of TAK-593 in the assay should be 1 uM. These wells will serve as positive control wells.Step 2. Pre-incubation of inhibitors with kinase: Add 2 μL/well 2× kinase solution. Centrifuge at 1000 rpm for 1 min. Incubate at room temperature for 30 min.Step 3. Kinase cascade reaction: Add 2 μL/well 2× substrate/ATP solution to initiate kinase reactions. Centrifuge at 1000 rpm for 1 min. Incubate at room temperature for 180 min.Final concentrations of components in the assay:[VEGFR2]=5 nM;[ATP]=1.2 mM;[Srctide]=1 mg/mL;[DMSO] G; 1%.Step 4. Quench: Add 2 uL/well ADP Glo Reagent+0.05% CHAPS. […] Centrifuge at 1000 rpm for 1 min; Incubate at room temperature for 1 hour; Read Luminescence on a plate reader.

Sequence of Platelet-derived growth factor receptor beta (P09619 whole entry): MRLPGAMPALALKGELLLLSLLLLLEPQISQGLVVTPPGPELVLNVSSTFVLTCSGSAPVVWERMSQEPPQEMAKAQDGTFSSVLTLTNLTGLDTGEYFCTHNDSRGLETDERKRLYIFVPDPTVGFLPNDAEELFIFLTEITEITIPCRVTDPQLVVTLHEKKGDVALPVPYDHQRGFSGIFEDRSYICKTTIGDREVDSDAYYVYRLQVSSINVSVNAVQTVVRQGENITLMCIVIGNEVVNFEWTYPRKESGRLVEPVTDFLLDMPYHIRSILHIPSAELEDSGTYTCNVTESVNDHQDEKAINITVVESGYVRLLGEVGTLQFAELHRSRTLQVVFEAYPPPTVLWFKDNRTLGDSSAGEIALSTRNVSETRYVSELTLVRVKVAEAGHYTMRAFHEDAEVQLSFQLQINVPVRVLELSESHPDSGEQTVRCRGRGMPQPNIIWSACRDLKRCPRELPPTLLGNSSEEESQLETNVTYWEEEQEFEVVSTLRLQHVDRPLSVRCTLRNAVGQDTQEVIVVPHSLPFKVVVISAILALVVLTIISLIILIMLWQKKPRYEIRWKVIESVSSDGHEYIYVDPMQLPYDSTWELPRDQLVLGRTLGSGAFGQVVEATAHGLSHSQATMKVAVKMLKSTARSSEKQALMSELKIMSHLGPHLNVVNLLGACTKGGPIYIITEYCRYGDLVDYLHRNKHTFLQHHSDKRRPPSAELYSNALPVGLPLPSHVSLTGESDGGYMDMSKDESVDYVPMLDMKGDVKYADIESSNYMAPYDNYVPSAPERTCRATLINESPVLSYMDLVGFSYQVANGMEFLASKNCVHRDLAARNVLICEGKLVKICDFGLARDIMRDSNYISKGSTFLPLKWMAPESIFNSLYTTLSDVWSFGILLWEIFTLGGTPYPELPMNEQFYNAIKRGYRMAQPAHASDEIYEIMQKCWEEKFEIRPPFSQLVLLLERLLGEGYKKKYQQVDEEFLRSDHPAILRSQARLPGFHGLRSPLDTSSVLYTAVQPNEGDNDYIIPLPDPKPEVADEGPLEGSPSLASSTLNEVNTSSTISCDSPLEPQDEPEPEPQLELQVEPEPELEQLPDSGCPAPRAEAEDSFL
Sequence of Vascular endothelial growth factor receptor 2 (P35968 whole entry): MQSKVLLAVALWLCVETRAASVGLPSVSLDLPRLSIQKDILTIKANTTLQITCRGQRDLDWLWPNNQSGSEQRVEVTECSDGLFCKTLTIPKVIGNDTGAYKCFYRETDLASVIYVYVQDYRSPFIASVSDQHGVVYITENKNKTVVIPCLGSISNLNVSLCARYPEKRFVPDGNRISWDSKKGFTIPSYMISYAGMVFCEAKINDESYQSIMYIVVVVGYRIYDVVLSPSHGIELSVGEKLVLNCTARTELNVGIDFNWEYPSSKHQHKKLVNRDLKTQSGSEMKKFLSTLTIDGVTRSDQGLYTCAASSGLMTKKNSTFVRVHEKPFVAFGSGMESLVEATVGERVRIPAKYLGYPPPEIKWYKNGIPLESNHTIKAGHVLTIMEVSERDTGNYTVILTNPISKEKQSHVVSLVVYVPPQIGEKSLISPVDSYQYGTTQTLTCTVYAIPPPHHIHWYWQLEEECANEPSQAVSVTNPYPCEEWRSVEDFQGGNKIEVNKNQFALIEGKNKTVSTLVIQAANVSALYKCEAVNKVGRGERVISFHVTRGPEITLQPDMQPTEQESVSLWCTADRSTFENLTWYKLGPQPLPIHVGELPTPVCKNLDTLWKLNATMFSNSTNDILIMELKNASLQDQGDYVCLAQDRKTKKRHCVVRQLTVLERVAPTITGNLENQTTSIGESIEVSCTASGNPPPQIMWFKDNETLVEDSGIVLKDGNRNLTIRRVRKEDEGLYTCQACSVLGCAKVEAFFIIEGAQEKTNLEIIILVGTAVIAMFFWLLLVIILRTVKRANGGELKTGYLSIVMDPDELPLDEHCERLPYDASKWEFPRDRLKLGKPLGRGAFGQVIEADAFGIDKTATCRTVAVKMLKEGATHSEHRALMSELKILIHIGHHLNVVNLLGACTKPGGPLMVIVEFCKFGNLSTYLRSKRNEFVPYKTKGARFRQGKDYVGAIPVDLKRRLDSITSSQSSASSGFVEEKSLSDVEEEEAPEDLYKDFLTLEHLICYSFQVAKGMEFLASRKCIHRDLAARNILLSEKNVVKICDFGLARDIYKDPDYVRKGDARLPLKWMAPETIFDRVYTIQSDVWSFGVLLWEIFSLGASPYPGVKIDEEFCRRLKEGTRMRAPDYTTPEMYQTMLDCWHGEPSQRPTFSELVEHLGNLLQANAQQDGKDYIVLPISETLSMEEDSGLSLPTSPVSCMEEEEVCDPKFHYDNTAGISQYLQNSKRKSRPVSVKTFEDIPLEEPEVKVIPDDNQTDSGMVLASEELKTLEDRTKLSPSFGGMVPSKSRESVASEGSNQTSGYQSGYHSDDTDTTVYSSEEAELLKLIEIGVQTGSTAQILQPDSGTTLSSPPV

For the compound `CCOC1CN(CC(=O)Nc2cnc(C)c(NC(=O)c3cnn4cc(-c5cccnc5OC)sc34)c2)C1` [US20240109917, Example 401], the concentration for half-maximal inhibition (IC50) in assay [1] was 0.3 nM; in assay [2] it was greater than 7500 nM.

As a reminder, the IC50 is the point on the concentration scale where inhibition reaches its midpoint. Low values mean greater potency in that assay, high ones weaker potency in that assay.
